# Measurements reported in US9006191B2, “Silencing of polo-like kinase expression using interfering RNA” (Protiva Biotherapeutics, Inc., priority 2007, dated 2015).
# Like-named read-outs stand apart in the source and are kept apart here. m = 2'-O-methyl; r = 2'-OH (RNA)
# Key:
# [1] = Multi-dose toxicity study in CD1 ICR mice; assay type: in vivo, mouse; details: 2 mg/kg twice weekly, after 15 and 29 days
# Procedure: Groups of CD1 ICR mice were administered PBS, PLK773-1/B, or Luc-U/U SNALP to assess potential cumulative toxicities associated with either PLK-1 silencing or the lipid vehicle. Mice were treated twice weekly at 2 mg/kg siRNA, equivalent to the efficacious dosing regimen in tumor studies. […] All values are mean+/−SD (n=6). No changes in red blood cell parameters were observed.
# [2] = tested on: Flt3-ligand derived murine dendritic cells; experiment: Cytokine induction in murine Flt3L dendritic cell cultures (ELISA); assay type: cell-based, mouse; details: murine Flt3L DC, 5 μg/ml siRNA in SNALP, 24 h
# Procedure: Cytokine Induction Assays: Flt3-ligand derived murine dendritic cells (Flt3L DC) were generated as described by Gilliet et al. (J. Exp. Med., 195:953-958) using 100 ng/ml murine Flt3-ligand (PeproTech Inc.; Rocky Hill, N.J.) supplemented media. Femurs and tibiae of female Balb/C mice were isolated and rinsed in sterile PBS. The ends of bones were cut and marrow harvested in complete media (RPMI 1640, 10% heat inactivated FBS, 1% penicillin/streptomycin, 2 mM L-glutamine, 1 mM sodium pyruvate, 25 mM HEPES, 50 μM 2-mercaptoethanol). Bone marrow cells were passed through a 70 μm strainer, centrifuged at 1000 rpm for 7 minutes, and resuspended in complete media supplemented with 100 ng/ml murine Flt3L to 2×10^6 cells/ml. 2 mls of cells were seeded in 6-well plates and 1 ml fresh complete media added every two or three days. On day 9 of culture, non-adherent cells were washed in complete media and plated into 96-well plates at concentrations ranging from 0.5 to 2.5×10^5 cells/well. 2′OMe-modified and unmodified (0/0) PLK-1 SNALP were diluted in PBS and added to Flt3L DC cultures at 5 μg/ml siRNA. Cells were incubated for 24 hours at 37° C. before supernatants were assayed for cytokines by ELISA.
# Cytokine ELISA: Interferon-α and IL-6 in culture supernatants were quantified using sandwich ELISA kits according to manufacturer's instructions. These were mouse IFN-α (PBL Biomedical; Piscataway, N.J.) and mouse IL-6 (eBioscience; San Diego, Calif.).
# In vitro immune stimulation assays. Mouse Flt3L dendritic cell cultures were generated as described previously (65). In brief, bone marrow from Balb/C mice was harvested in complete media (RPMI 1640, 10% FBS, 1% penicillin/streptomycin, 2 mM L-glutamine, 1 mM sodium pyruvate, 25 mM HEPES, 50 uM 2-mercaptoethanol), passed through a 70 micron strainer and resuspended to 2×10^6 cells/mL in complete media supplemented with 100 ng/mL murine Flt3L (Peprotech). Cells were seeded in 6-well plates and 1 mL fresh Flt3L media added every three days. On day 9 of culture, non-adherent cells were plated into 96 well plates at a concentration 2×10^5 cells/well. Formulated siRNA were diluted in PBS and added to the cells for 24 h before supernatants were assayed for cytokines by ELISA.
# Cytokine ELISA. All cytokines were quantified using sandwich ELISA kits.
# IFIT1 mRNA, serum IFNα [3] = experiment: In vivo immune stimulation assay in Balb/c mice (IFIT1 mRNA, serum IFNα); details: SNALP-formulated siRNA IV; for IFIT1 mRNA induction in liver and spleen: 4 h
# Procedure: (§2) Balb/c mice (n=4 per group) were administered 2.5 mg/kg siRNA or lipid vehicle; serum IFNα (pg/mL) and IFIT1 mRNA (relative to GAPDH) from whole liver lysates were assessed after 4, 8, and 16 h by ELISA and bDNA assay, respectively. […] (b) Serum IFNα and (c) liver IFIT1 mRNA were assessed 4 h after administration (mean+SD, n=4).
# (§3) SNALP-formulated Luc (unmodified) and the 2′OMe-modified Luc-U/U, PLK1424-2/A, PLK773-1/B, or KSP2263-U/U siRNA were administered at 2 mg/kg i.v. to Balb/C mice. (A) IFIT1 relative to GAPDH mRNA in liver and spleen was assessed at 4 h by bDNA analysis. […] Serum IFNα was assessed at 6 h by ELISA. […] Values represent mean+SD (n=4).
# (§4) IFIT1 mRNA and serum cytokines were assessed 4-6 h after SNALP administration based on the approximate time of peak response for these markers. In these studies, SNALP-formulated native Luc siRNA (Table 6) was used as a positive control for immune stimulation.
# (§5) In vivo immune stimulation assays. […] 6-8 week old Balb/C mice were obtained from Harlan and subject to a two week acclimation period prior to use. Mice were administered SNALP formulated siRNA (2 mg/kg) in PBS via standard intravenous injection in the lateral tail vein. Blood was collected by cardiac puncture and processed as plasma for cytokine analysis. Liver and spleen were collected into RNALater (Sigma Co.) for IFIT1 mRNA analysis.
# (§6) Measurement of IFIT1 mRNA in mouse tissues. Murine liver and spleen were processed for bDNA assay to quantitate IFIT1 mRNA as described above. The IFIT1 probe set was specific to mouse IFIT1 mRNA (positions 4-499 of NM—008331) and the GAPDH probe set was specific to mouse GAPDH mRNA (positions 9-319 of NM—008084). Data is shown as the ratio of IFIT1 relative light units (RLU) to GAPDH RLU.
# (§7) Cytokine ELISA. All cytokines were quantified using sandwich ELISA kits. These were mouse interferon-α (PBL Biomedical; Piscataway, N.J.) and human and mouse IL-6 (BD Biosciences; San Diego, Calif.).
# Hep3B liver tumors = experiment: Intrahepatic Hep3B tumor model (survival, body weight, tumor burden); assay type: in vivo; details: scid/beige mice, 2 mg/kg IV twice weekly for 3 weeks
# Procedure: SNALP containing PLK-1 siRNA (“1:57” SNALP formulation: 1.4% PEG-cDMA; 57.1% DLinDMA; 7.1% DPPC; and 34.3% cholesterol) were tested for their effects on the survival of […] mice bearing Hep3B liver tumors.
# Intrahepatic tumor models. Liver tumors were established in mice by direct intrahepatic injection of Hep3B or Neuro2a tumor cells (45). Female scid/beige mice (Charles River Laboratories) and male A/J mice (Jackson Laboratories) were used as hosts for the Hep3B and Neuro2a tumors, respectively. Animals received Anafen by SC injection immediately prior to surgery. Individual mice were anaesthetized by isoflourane gas inhalation and eye lube applied to prevent excessive eye drying. While maintained under gas anaesthesia, a single 1.5 cm incision across the midline was made below the sternum and the left lateral hepatic lobe exteriorized. 1×10^6 Hep3B cells or 1×10^5 Neuro2a cells suspended in 25 μL PBS were injected slowly into the lobe at a shallow angle using a Hamilton syringe and 30G needle. A swab was then applied to the puncture wound to stop any bleeding prior to suturing. Mice were allowed to recover from anaesthesia in a sterile cage and monitored closely for 2-4 h before being returned to conventional housing.
# Eight to 11 days after tumor implantation, mice were randomized into treatment groups. siRNA SNALP formulations or PBS vehicle control were administered by standard intravenous injection via the lateral tail vein, calculated on a mg siRNA/kg basis according to individual animal weights (10 mL/kg injection volume). Body weights were then monitored throughout the duration of the study as an indicator of developing tumor burden and treatment tolerability. For efficacy studies, defined humane endpoints were determined as a surrogate for survival. Assessments were made by qualified veterinary technicians based on a combination of clinical signs, weight loss, and abdominal distension to define the day of euthanization due to tumor burden.
# Measurement of human PLK-1 and GAPDH mRNA in tumor tissues. Tumors were harvested directly into RNALater and stored at 4° C. until processing. 100 mg tumor tissue was homogenized in Tissue and Lysis Solution (EpiCentre Biotechnologies) containing […] proteinase K (EpiCentre) in a Fastprep tissue homogenizer followed by incubation in a 65° C. waterbath for 15 min and centrifuged to clarify lysates. mRNA analysis in FIG. 33B was performed on purified RNA isolated according the 5′-RACE-PCR protocol. Human PLK-1 and GAPDH mRNA were measured in tumor lystes by the QuantiGene bDNA assay (Panomics) as per the manufacturer's instructions (Quantigene 1.0 Manual). […] Data were expressed as mean PLK-1:GAPDH ratio+/−SD of individual animals. Tumor burden was assessed by homogenizing the complete liver from tumor bearing mice and measuring the total hGAPDH signal (RLU's) within the liver. Values were expressed as hGAPDH RLU/mg total liver.
# PLK-1 mRNA = experiment: 5′ RACE-PCR of Hep3B liver tumors; assay type: in vivo, human; details: hepatic Hep3B tumors, single 2 mg/kg IV dose
# Source text: (§1) 5′ RNA Ligase Mediated Rapid Amplification of cDNA ends (5′ RLM RACE).
# IFIT1 mRNA, serum IFNα [4] = details: mouse, in vivo, iv
# Procedure: as §2, §3, §4, §5, §6, §7
# mouse KSP mRNA [5] = experiment: 5′ RACE-PCR of hepatic Neuro2a tumors; assay type: in vivo
# Source text: as §1
# mouse KSP mRNA [6] = experiment: 5′ RACE-PCR in Neuro2a cells; assay type: cell-based; details: 24 h
# Procedure: (A) HT29 cells were treated with 10 nM SNALP-formulated PLK1424, Luc siRNA or PBS. RNA was isolated 24 hours after transfection and assayed for the specific PLK-1 mRNA cleavage product by 5′-RACE-PCR. (B) Neuro2a cells were treated with SNALP-formulated KSP2263, PLK773 siRNA or PBS. RNA was isolated 24 hours after transfection and assayed for the specific mouse KSP mRNA cleavage product by 5′-RACE-PCR.
# The detection of specific RNA cleavage products generated by RISC-mediated hydrolysis of target mRNA is the definitive marker confirming RNAi as the mechanism of gene silencing (39, 40). Activated RISC cleaves target mRNA precisely between the nucleotides complementary to positions 10 and 11 of the siRNA AS strand generating an mRNA cleavage product that is unique to the siRNA sequence. This can be detected in cells using an appropriately designed 5′-rapid amplification of cDNA ends-PCR method (RACE-PCR). We developed RACE-PCR assays to detect the PLK1424-specific cleavage product of human PLK-1 mRNA and the KSP2263-specific cleavage product of mouse KSP mRNA.
# as §1
# HeLa cells = experiment: Monoastral spindle formation in HeLa cells; assay type: cell-based, human; details: 20 nM, 16 h
# Procedure: HeLa cells were treated for 16 h with (A) Luc or (B) KSP2263 siRNA at 20 nM then immunostained for α-tubulin (FITC). DNA was stained with DAPI and flourescent images captured and overlayed.
# Neuro2a tumors = experiment: Hepatic Neuro2a tumor histology (H&E, quantitative); assay type: in vivo, mouse
# Procedure: Hepatic Neuro2a tumor histology 24 h after a single intravenous administration of (A) Luc-U/U or (B) KSP2263-U/U siRNA formulated in SNALP (2 mg/kg siRNA). Images are at 200× magnification and representative of tumors from at least 6 individual mice. […] (C) Quantitative histology of H&E stained tumor tissues from mice treated with SNALP-formulated KSP2263-U/U at 4, 2, 1, or 0.5 mg/kg siRNA. Tumor cells with condensed chromatin structures were scored positive and calculated as a % of total tumor cells taken from 10 fields of view. Positive cells included aberrant and typical mitotic and apoptotic figures. Values are mean+SD of 3 mice. Mean SNALP particle size and (polydispersity) were 88 (0.07) and 82 (0.08) nm for KSP2263 and Luc, respectively.
# Histology. Tumors were harvested from mice 24 h after siRNA administration and fixed directly in 10% buffered formalin. Tissues were then processed as paraffin embedded tissue sections and stained with Hematoxylin and Eosin using conventional histological techniques. Quantitative analysis of stained sections was performed by counting the number of mitotic/apoptotic cells displaying condensed chromatin structures as a percentage of total tumor cells. Values for each tumor were derived from means of 10 fields of view at 400× magnification.
# Neuro2a liver tumors = experiment: Intrahepatic Neuro2a tumor model (survival); assay type: in vivo, mouse; details: A/J mice, hepatic Neuro2a tumors, 4 mg/kg Q3d x5
# Procedure: PLK1424-2/A treatment confers significant survival advantages in scid/beige mice bearing hepatic Hep3B tumors. Mice were administered SNALP-formulated PLK1424-2/A (n=15) or Luc-U/U (n=8) at 6×2 mg/kg, intravenous twice weekly (d 10 to d 28). (A) Body weights (mean+SD) over the dosing period expressed as % of initial weight on d 10. (B) Kaplan-Meier plot of days to euthanization due to tumor burden. […] (p=0.03, Log-rank Mantel Cox test). (C) Residual hepatic Hep3B tumor burden in mice 24 h after final administration of PLK1424-2/A siRNA (5×2 mg/kg siRNA on d 8, 11, 14, 18 & 21). Bars represent hGAPDH mRNA/mg liver of individual mice (mean+/−SD of triplicate analyses) determined by human-specific bDNA assay (No tumor=livers from non-tumor seeded mice). […]
# Intrahepatic tumor models. […] Mice were allowed to recover from anaesthesia in a sterile cage and monitored closely for 2-4 h before being returned to conventional housing.
# Eight to 11 days after tumor implantation, mice were randomized into treatment groups. siRNA SNALP formulations or PBS vehicle control were administered by standard intravenous injection via the lateral tail vein, calculated on a mg siRNA/kg basis according to individual animal weights (10 mL/kg injection volume). Body weights were then monitored throughout the duration of the study as an indicator of developing tumor burden and treatment tolerability. […]
Substance,clinical chemistry and blood counts [1],"cytokine (IL-6, IFN-α) response [2]","serum IFNα / serum cytokine response (IFIT1 mRNA, serum IFNα [3]; 4-6 h)","IFIT1 mRNA induction in liver and spleen (IFIT1 mRNA, serum IFNα [3])",median survival time (Hep3B liver tumors) [days],time until first euthanization (Hep3B liver tumors; days after tumor seeding) [days],specific cleavage product of PLK-1 mRNA by 5′ RACE-PCR (PLK-1 mRNA),"serum IFNα / serum cytokine response (IFIT1 mRNA, serum IFNα [4])",RNAi-mediated KSP mRNA cleavage by RACE-PCR (mouse KSP mRNA [5]),KSP mRNA cleavage product by 5′ RACE-PCR (mouse KSP mRNA [6]),monoastral spindle phenotype (HeLa cells),Neuro2a tumor histology (aberrant mitotic figures) (Neuro2a tumors; 24 h after SNALP administration),"tumor cells with condensed chromatin structures, % of total tumor cells (Neuro2a tumors; 24 h post siRNA treatment) [%]",median survival time (Neuro2a liver tumors) [days]
"PLK773-1/B: 2′OMe-modified PLK773 duplex, SEQ ID NO:220/223 (chain 1 AGACCUACCUCCGGAUCAAUU; chain 2 UUGAUCCGNAGNUAGGNCUUU; siRNA; chain 1: sugars from the 5' end r1 m1 r10 m1 r8, backbone not given here; chain 2: chemistry not given here)","no significant changes in serum liver enzymes, total wbc, lymphocyte and neutrophil counts, platelet numbers, or rbc parameters",completely abrogated,no measurable IFNα,no measurable IFNα or increase in IFIT1 mRNA in the liver or spleen,,,,,,,,,,
"Luc-U/U: control 2′OMe siRNA targeting luciferase, SEQ ID NO:233/234 (chain 1 GANUANGNCCGGNNANGNAUU; chain 2 UACANAACCGGACANAANCUU; 2'-O-methyl modifications at selected positions, key for n not given here) [reference compound]",,,,no measurable IFNα or increase in IFIT1 mRNA in the liver or spleen,32,28,not evident,no measurable IFNα,,,,,,
"KSP2263-U/U: 2′OMe-modified KSP2263 duplex, SEQ ID NO:227/229 (chain 1 CNGAAGACCNGAAGACAANTT; chain 2 AUUGUCUNCAGGNCUNCAGTT; siRNA; 2'-O-methyl modifications at selected positions, key for n not given here)",,,,no measurable IFNα or increase in IFIT1 mRNA in the liver or spleen,,,,no measurable IFNα,confirmed the specific induction of RNAi-mediated KSP mRNA cleavage within tumors,predicted 102 bp RACE-PCR product was amplified,induced the distinct monoastral nuclear phenotype in vitro,significant numbers of tumor cells with aberrant mitotic figures typical of monoastral and apoptotic cells,~13,28
